From ChEMBL document CHEMBL1152560, “Substituted 2-arylbenzothiazoles as kinase inhibitors: hit-to-lead optimization” (Bioorg Med Chem, 2009)

Key:
[1] = target: Cyclin-dependent kinase 4/cyclin D1 (Homo sapiens) (UniProt P11802+P24385); experiment: Residual activity of CDK4/Cyclin D1 at 0.1 uM by microplate scintillation counting; type: protein-complex assay
[2] = target: CDK1/Cyclin A (Homo sapiens) (UniProt P06493+P20248); experiment: Residual activity of CDK1/Cyclin A at 1 uM by microplate scintillation counting; type: protein-complex assay
[3] = target: T1, Tyrosine-protein kinase ZAP-70 (Homo sapiens) (UniProt P43403); experiment: Residual activity of ZAP70 at 0.1 uM by microplate scintillation counting
T1 sequence (whole entry): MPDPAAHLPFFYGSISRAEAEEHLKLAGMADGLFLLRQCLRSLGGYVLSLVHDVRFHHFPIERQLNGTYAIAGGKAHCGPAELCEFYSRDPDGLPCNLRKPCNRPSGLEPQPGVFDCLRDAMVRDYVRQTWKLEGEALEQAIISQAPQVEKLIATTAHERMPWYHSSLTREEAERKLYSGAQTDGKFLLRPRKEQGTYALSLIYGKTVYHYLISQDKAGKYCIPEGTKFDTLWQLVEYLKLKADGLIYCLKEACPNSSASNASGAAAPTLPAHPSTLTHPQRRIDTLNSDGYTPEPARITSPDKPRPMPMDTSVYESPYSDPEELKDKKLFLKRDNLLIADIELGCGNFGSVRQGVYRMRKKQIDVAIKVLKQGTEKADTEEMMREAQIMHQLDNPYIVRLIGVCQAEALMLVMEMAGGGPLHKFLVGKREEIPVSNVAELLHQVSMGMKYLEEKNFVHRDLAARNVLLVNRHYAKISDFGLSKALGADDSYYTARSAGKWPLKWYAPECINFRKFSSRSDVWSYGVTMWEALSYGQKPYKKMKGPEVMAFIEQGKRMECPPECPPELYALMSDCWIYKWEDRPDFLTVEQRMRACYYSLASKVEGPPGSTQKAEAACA

[4] = target: Serine/threonine-protein kinase MRCK beta (Homo sapiens) (UniProt Q9Y5S2); experiment: Residual activity of CDC42BPB at 1 uM by microplate scintillation counting
Aurora kinase B = Aurora kinase B (Homo sapiens, UniProt Q96GD4); experiment: Residual activity of Aurora-B at 10 uM by microplate scintillation counting
[5] = target: Protein-tyrosine kinase 6 (Homo sapiens) (UniProt Q13882); experiment: Residual activity of BRK at 1 uM by microplate scintillation counting
[6] = target: T2, Ephrin type-B receptor 3 (Homo sapiens) (UniProt P54753); experiment: Residual activity of EPHB3 at 10 uM by microplate scintillation counting
T2 sequence (whole entry): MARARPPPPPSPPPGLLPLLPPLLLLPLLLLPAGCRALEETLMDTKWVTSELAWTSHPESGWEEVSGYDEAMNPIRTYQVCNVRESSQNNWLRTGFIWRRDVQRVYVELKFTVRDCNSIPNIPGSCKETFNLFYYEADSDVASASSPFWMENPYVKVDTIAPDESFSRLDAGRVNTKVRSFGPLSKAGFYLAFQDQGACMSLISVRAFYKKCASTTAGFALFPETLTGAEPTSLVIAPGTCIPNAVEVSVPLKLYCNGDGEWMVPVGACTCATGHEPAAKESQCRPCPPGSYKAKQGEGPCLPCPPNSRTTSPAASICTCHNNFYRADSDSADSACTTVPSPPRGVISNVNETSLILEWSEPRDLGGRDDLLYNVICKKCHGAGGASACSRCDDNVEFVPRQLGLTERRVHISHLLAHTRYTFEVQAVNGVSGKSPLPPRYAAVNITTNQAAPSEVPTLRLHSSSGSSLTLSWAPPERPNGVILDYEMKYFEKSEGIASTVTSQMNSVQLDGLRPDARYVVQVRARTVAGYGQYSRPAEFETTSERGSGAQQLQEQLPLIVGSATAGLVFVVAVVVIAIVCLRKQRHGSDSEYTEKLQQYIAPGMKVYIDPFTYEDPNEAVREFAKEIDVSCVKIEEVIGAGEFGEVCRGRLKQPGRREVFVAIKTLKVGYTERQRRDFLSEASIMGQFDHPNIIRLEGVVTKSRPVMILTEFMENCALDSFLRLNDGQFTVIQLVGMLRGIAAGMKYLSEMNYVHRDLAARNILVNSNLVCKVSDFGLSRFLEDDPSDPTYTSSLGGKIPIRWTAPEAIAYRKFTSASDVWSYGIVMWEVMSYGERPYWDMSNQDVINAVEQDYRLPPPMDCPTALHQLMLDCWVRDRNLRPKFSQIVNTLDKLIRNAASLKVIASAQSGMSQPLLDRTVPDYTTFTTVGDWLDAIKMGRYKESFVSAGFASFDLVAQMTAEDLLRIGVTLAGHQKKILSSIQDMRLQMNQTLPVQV

[7] = target: T3, MAP kinase-activated protein kinase 5 (Homo sapiens) (UniProt Q8IW41); experiment: Residual activity of MAPKAPK5 at 0.1 uM by microplate scintillation counting
T3 sequence (whole entry): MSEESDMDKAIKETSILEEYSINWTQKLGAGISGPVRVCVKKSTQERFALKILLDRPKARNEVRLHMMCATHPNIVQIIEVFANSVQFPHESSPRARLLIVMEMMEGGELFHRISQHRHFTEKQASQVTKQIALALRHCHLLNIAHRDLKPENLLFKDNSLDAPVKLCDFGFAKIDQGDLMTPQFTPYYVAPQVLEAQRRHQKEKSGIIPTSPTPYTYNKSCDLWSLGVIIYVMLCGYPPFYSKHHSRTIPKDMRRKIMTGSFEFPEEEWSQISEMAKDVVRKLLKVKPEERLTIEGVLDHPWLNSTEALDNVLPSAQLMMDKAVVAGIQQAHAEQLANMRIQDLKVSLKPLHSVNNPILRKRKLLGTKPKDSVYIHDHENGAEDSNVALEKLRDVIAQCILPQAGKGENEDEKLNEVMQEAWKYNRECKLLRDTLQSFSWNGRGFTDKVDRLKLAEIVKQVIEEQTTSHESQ

Protein-tyrosine kinase 6 (Homo sapiens), sequence (Q13882 whole entry, looked up): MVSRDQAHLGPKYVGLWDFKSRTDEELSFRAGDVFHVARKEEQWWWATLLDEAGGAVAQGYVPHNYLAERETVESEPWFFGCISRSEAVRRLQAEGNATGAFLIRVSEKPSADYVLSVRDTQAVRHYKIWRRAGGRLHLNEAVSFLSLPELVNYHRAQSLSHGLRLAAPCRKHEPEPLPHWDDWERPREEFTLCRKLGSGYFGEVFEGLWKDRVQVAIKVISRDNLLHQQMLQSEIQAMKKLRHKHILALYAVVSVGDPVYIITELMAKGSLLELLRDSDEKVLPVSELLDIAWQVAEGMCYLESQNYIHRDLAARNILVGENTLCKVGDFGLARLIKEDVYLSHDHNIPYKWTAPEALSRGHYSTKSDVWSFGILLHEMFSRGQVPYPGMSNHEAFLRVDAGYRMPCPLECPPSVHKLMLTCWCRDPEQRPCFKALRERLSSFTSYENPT
CDK1/Cyclin A (Homo sapiens), sequence (P06493 whole entry, looked up): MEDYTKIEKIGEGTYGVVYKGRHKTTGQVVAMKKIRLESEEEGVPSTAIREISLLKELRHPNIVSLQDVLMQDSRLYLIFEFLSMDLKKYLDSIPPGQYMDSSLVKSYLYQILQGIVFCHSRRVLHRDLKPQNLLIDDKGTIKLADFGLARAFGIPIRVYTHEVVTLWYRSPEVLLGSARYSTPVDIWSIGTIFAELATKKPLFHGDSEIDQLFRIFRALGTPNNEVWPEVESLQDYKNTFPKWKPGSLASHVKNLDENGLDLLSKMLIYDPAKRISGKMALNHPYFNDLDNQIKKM
CDK1/Cyclin A (Homo sapiens), sequence (P20248 whole entry, looked up): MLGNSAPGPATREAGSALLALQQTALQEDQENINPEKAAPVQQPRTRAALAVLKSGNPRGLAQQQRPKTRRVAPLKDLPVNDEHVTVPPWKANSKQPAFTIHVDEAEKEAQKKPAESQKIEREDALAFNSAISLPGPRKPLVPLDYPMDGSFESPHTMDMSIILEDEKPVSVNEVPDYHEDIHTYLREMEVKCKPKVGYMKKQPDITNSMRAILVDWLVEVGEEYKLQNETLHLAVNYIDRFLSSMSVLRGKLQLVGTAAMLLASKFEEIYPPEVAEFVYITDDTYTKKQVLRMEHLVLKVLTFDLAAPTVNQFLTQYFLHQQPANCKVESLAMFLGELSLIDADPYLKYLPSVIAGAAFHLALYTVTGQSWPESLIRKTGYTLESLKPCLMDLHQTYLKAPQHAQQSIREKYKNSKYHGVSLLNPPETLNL
Aurora kinase B, sequence (Q96GD4 whole entry): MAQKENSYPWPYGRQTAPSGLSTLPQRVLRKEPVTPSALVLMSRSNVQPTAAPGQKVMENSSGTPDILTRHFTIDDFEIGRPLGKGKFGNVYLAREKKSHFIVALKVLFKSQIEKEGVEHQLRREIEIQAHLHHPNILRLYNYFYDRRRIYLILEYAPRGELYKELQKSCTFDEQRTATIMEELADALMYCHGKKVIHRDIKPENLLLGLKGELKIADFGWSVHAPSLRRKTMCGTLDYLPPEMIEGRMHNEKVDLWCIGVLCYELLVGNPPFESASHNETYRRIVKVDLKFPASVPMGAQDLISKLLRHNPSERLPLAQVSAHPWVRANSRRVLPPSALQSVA
Serine/threonine-protein kinase MRCK beta (Homo sapiens), sequence (Q9Y5S2 whole entry): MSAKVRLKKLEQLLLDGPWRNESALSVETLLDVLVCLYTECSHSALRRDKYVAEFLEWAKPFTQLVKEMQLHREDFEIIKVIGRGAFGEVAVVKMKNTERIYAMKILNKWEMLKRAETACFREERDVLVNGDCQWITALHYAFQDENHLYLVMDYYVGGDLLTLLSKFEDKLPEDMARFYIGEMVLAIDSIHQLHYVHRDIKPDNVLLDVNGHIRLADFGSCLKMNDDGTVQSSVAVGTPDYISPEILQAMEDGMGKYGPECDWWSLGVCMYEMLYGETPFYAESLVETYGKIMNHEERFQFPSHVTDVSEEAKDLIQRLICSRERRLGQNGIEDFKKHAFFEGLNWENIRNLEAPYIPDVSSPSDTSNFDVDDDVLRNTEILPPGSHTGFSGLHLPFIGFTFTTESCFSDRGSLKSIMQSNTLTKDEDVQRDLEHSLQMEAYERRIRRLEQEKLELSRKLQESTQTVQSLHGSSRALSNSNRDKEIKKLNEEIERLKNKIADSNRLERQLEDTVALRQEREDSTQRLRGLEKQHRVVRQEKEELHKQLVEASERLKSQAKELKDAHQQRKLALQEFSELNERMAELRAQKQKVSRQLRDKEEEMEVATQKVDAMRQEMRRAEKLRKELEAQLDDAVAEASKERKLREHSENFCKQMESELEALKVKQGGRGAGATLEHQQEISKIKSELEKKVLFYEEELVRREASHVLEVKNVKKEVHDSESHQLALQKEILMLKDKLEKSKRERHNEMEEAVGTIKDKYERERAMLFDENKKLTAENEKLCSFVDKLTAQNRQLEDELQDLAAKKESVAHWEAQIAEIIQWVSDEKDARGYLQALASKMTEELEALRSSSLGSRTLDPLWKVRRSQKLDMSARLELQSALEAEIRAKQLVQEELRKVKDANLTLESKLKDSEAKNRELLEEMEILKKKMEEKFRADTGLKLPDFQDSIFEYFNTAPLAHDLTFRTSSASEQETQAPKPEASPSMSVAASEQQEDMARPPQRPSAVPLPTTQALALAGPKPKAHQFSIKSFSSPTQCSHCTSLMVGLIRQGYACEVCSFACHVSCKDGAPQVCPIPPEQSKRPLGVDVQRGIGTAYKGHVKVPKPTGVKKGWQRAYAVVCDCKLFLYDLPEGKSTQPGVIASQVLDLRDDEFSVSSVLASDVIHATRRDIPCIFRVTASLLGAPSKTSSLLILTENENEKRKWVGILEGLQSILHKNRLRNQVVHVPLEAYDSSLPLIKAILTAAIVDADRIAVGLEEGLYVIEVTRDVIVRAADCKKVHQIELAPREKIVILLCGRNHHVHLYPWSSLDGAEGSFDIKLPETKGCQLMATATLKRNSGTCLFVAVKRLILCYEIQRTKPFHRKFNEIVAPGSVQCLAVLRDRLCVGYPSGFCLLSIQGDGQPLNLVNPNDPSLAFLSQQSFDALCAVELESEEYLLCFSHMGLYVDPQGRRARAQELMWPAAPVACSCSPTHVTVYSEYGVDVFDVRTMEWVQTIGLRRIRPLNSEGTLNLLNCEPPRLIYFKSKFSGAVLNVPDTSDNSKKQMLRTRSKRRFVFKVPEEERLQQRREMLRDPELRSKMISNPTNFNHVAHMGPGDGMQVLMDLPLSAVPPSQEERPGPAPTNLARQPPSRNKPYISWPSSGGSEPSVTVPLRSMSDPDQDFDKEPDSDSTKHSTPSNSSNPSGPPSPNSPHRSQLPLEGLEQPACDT

residual activity [1] [%] | residual activity [2] [%] | residual activity [3] [%] | residual activity [4] [%] | residual activity (Aurora kinase B) [%] | residual activity [5] [%] | residual activity [6] [%] | residual activity [7] [%] | SMILES
98 | 111 | 111 | 99 | 3 | 8 | 227 | 97 | COc1cc2c(Oc3ccc(-c4nc5ccccc5s4)cc3)ncnc2cc1OCCCN1CCCC1
98 | 102 | 108 | 90 | 3 | 4 | 105 | 95 | COc1cc2c(Oc3ccc(-c4nc5ccccc5s4)cc3F)ncnc2cc1OCCCN1CCN(C)CC1
96 | 101 | 112 | 100 | 5 | 7 | 372 | 124 | COc1cc2c(Oc3ccc(-c4nc5ccccc5s4)cc3)ncnc2cc1OCCCN1CCN(C)CC1
